# Reference: paper PMC8674134, “Safety and efficacy of avapritinib in advanced systemic mastocytosis: the phase 1 EXPLORER trial” (Nature Medicine, 2021)
# What was measured:
# KIT D816V = system: KIT D816V; set-up: method as in PMID 29093181; conditions: immunoblot in a xenograft model; cited from earlier work
# [1] = system: KIT D816V variant allele fraction; experiment: KIT D816V variant allele fraction in BM by central ddPCR; format: in vivo, human; conditions: for Complete elimination of measurable KIT D816V VAF, patients: post hoc
# Method: (§1) Other secondary endpoints included PK, DOR and changes in measures of mast cell burden (percentage of BM mast cells, serum tryptase concentration, KIT D816V VAF by ddPCR (detection limit 0.17%), and spleen and liver volumes). PROs were measured by daily completion of AdvSM-SAF (described below) for patients in part 2 as a secondary outcome[37]–[39]. Exploratory endpoints included time to response, PFS and OS.
# (§2) Responses were assessed according to the protocol schedule. Spleen size was assessed by palpation and by imaging with calculation of volume centrally. KIT D816V VAF in the BM (or in blood if unavailable) was centrally measured using a validated ddPCR assay with a lower limit of detection of 0.17% (Bio-Rad). Other somatic mutations in BM were centrally assayed at baseline by next-generation sequencing.
# [2] = system: advanced systemic mastocytosis (AdvSM); experiment: Kaplan–Meier estimates of DOR, PFS and OS; format: in vivo, human
# Method: Spleen response was determined for patients with baseline splenomegaly (spleen ≥ 5 cm by palpation) and was assessed by palpation or spleen volume by imaging (that is, ≥35% reduction from baseline in spleen volume based on central imaging); presence of either criterion was considered a response. DOR started at the first evidence of a response in any evaluable C-finding (per mIWG-MRT-ECNM criteria) and ended at the time a response was lost (that is, loss of response per mIWG-MRT-ECNM criteria). For patients who were still responding at the time of analysis, DOR was censored at the latest time point that the patient is assessed as having clinical improvement or better. OS was analyzed in the safety population and was defined as the time from first dose to the time of death due to any cause. PK data were summarized for patients with sufficient plasma concentration–time data. Descriptive statistics were used to summarize PK parameters for each dose level, as appropriate.
# ORR was defined as the proportion of patients with a confirmed best response of CR, CRh, PR or clinical improvement by mIWG-MRT-ECNM consensus criteria. Time to CR/CRh/PR was defined as the time from the start of treatment to the time a CR/CRh/PR by mIWG-MRT-ECNM was first met. DOR was defined as the time from first documented response to the date of first documented progressive disease/loss of response or death due to any cause, whichever occurred first. OS was defined as the time from the start of treatment to the date of death. PFS was defined as the time from the start of treatment to the date of first documented progressive disease or death due to any cause, whichever occurred first. Progressive disease was defined per mIWG-MRT-ECNM criteria as worsening of ≥1 baseline C-finding confirmed for at least 4 weeks, or progression to acute myeloid leukemia.
# OS, PFS and DOR were determined by Kaplan–Meier estimates, and 95% CIs were estimated using Greenwood’s formula[41]. Comparisons between two Kaplan–Meier functions was performed using a log-rank test.
# [3] = system: mast cell burden in patients with AdvSM; experiment: Changes in measures of mast cell burden (BM mast cells, serum tryptase, spleen volume); format: in vivo, human
# Method: as §1
# The percentage change from baseline in spleen and liver volume as measured by central radiographic assessment using an MRI or a CT scan was summarized over time in the safety population. In addition, maximum percentage reduction was presented in waterfall plots.
# as §2
# AdvSM symptom burden = experiment: Patient-reported outcomes: AdvSM-SAF total symptom score; format: in vivo, human; conditions: C11; P = 0.002, n = 20; baseline 19.1 points (n = 40)
# Description: The AdvSM-SAF comprises a ten-item questionnaire completed by the patient daily, specifically designed to assess symptoms related to AdvSM and measure the impact of treatments on patient symptom improvement. […] The AdvSM-SAF assesses the severity of eight symptoms of AdvSM, including abdominal pain, nausea, vomiting, diarrhea, spots, itching, flushing and fatigue over a 24-h period on a numerical rating scale, and also measures the frequency of vomiting and diarrhea by asking patients to enter a discrete numerical value. Data were analyzed at the item level, domain level and total score level. Domain level analyses are: • Gastrointestinal symptoms score (abdominal pain, nausea, vomiting and diarrhea severity (range 0–40)) • Skin symptom score (spots, itching and flushing severity (range 0–30))
# The TSS was achieved by summing all eight severity items (range 0–80).
# SM-associated symptoms = experiment: On-study corticosteroid usage; format: in vivo, human
# Method: At baseline, approximately one-third of patients overall (29 patients; 34%) were using corticosteroids. After baseline, as a result of improvement in SM-associated symptoms, 19 patients (66%) reduced their corticosteroid usage, of whom 12 (41%) patients discontinued corticosteroid use entirely, while 7 (24%) were able to reduce the dose.
# Corticosteroid treatment, not exceeding doses administered during screening, was permitted; doses higher than 20 mg daily prednisone equivalent were avoided, and prolonged treatment (>14 d) with high-dose corticosteroids rendered patients ineligible for response assessment.
structure (smiles),measurement,setting,value
Cn1cc(-c2cc3c(N4CCN(c5ncc([C@@](C)(N)c6ccc(F)cc6)cn5)CC4)ncnn3c2)cn1 [avapritinib],In vivo IC90 for inhibition of KIT D816V in xenograft model,KIT D816V,0.189 µg/mL
same,Patients with KIT D816V VAF in BM reduced from baseline by ≥50%,"[1]; patients with AdvSM, ddPCR",80%
same,Patients in whom KIT D816V VAF in BM became undetectable,"[1]; patients with AdvSM, ddPCR limit of detection 0.17%",30%
same,"Complete elimination of measurable KIT D816V VAF, patients",[1]; best response CR (n = 8),63%
same,"Complete elimination of measurable KIT D816V VAF, patients",[1]; best response CRh (n = 8),50%
same,"Complete elimination of measurable KIT D816V VAF, patients",[1]; best response PR (n = 13),23%
same,"Complete elimination of measurable KIT D816V VAF, patients",[1]; clinical improvement (n = 2) or stable disease (n = 11),15%
same,Median duration of response (DOR),"[2]; 95% CI, 22 months–not estimable",38 months
same,Estimated 24-month DOR rate,"[2]; 95% CI, 49–84%",67%
same,Estimated 12-month DOR rate,"[2]; 95% CI, 72–96%",84%
same,Median OS,"[2]; AdvSM safety population (n = 69), median follow-up 23 months",not reached
same,Estimated 24-month OS rate,"[2]; overall AdvSM, 95% CI, 64–87%",76%
same,Estimated 24-month OS rate,[2]; patients with ASM,100%
same,Estimated 24-month OS rate,"[2]; patients with MCL, 95% CI, 76–100%",92%
same,Estimated 24-month OS rate,[2]; patients with SM-AHN,67%
same,OS (24-month OS rate),"[2]; patients with a MARS of 0–1, post hoc",100%
same,Estimated PFS rate at 24 months,"[2]; response-evaluable population (n = 53), 95% CI, 48–79%",63%
same,Estimated PFS rate at 12 months,"[2]; response-evaluable population (n = 53), 95% CI, 73–94%",84%
same,Patients who progressed to acute myeloid leukemia,"[2]; six patients, during the study",9%
same,Patients with spleen volume reduced by ≥35%,[3]; 66 patients with a baseline spleen volume assessment,82%
same,Patients with BM mast cells decreased by ≥50%,[3]; patients with AdvSM,92%
same,Patients with mast cell aggregates eliminated,[3]; patients with AdvSM,77%
same,Patients with serum tryptase reduced by ≥50%,[3]; patients with AdvSM,99%
same,Patients with serum tryptase reduced to <20 ng ml^−1,[3]; patients with AdvSM,74%
same,Mean change from baseline AdvSM-SAF TSS,AdvSM symptom burden,−10.9 points
same,Patients able to reduce the corticosteroid dose,SM-associated symptoms; 7 of 29 patients using corticosteroids at baseline,24%
same,Patients who discontinued corticosteroid use entirely,SM-associated symptoms; 12 of 29 patients using corticosteroids at baseline,41%
same,Patients who reduced their corticosteroid usage,SM-associated symptoms; 19 of 29 patients using corticosteroids at baseline,66%
